According to patent US10550144B2, “6-aryl-9-glycosylpurines and use thereof” (UNIVERZITA PALACKEHO V OLOMOUCI, priority 2014, dated 2020):

Key:
[1] = tested on: Arabidopsis wild-type plants (Col-0) detached leaves, gene transcription; assay: Differential gene expression study (RNA sequencing) in detached senescent leaves; assay type: in vivo; conditions: 10 μM
Experimental: For isolation of total RNA, Arabidopsis wild-type plants (Col-0) were used, which were either treated with 3MeOBAPA or left untreated. Wild-type plants were grown in soil for 30 days, and then leaves of similar size and chlorophyll content were cut and immediately used for the treatment. At least 20 detached leaves were submerged in 1×MS medium supplemented with 10 μM 3MeOBAPA. Control samples were mock treated with DMSO only. After incubation for 6 h or 48 h in the dark, detached leaves were frozen in liquid nitrogen and used for RNA isolation; 150 mg of liquid nitrogen-ground material was used per isolation. cDNA sequencing libraries were prepared with the Illumina TruSeq Stranded mRNA LT Sample Prep Kit (Illumina, San Diego, Calif.) according to standard Illumina's protocols and sequenced on HiSeq 2500 apparatus (50 bp single-end reads).
To gain insight into the molecular mechanism of 3MeOBAPA action in Arabidopsis we decided to analyze the gene expression patterns via comparison of mock (DMSO)-treated plants with those obtained after i) short time treatment with 3MeOBAPA (6 h) and ii) long time treatment (48 h). This comparison leads to identification of group of genes with similar kinetic of expression and helps to understand possible mechanism of regulation. For data analysis, we performed ab initio method where sequencing reads were mapped to the reference genome.

[2] = tested on: Triticum aestivum cv. Hereward detached leaf segments; assay: Senescence bioassay on detached wheat leaf segments (chlorophyll retention); assay type: in vivo; conditions: 96 h incubation in the dark at 25° C.; tested 10^−8 M to 10^−4 M
Experimental: Seeds of winter wheat, Triticum aestivum cv. Hereward, were washed under running water for 24 hours and then sown on vermiculite soaked with Knop's solution. They were placed in the growth chamber at 25° C. with a 16/8 h light period at 50 μmol·m^−2·s^−1. After 7 days, the first leaf was fully developed and the second leaf had started to grow. A tip section of the first leaf, approximately 35 mm long, was removed from 5 seedlings and trimmed slightly to a combined weight of 100 mg. The basal ends of the five leaf tips were placed in the wells of a microtiter polystyrene plate containing 150 μL of the tested derivative solution each. The entire plate was inserted into a plastic box lined with paper tissues soaked in distilled water to prevent leaf sections from drying out. After 96 h incubation in the dark at 25° C., the leaves were removed and chlorophyll extracted by heating at 80° C. for 10 min in 5 mL of 80% ethanol (v/v). The sample volume was then restored to 5 mL by the addition of 80% ethanol (v/v). The absorbance of the extract was recorded at 665 nm. In addition, chlorophyll extracts from fresh leaves and leaf tips incubated in deionised water were measured. The results are means of five replicates and the entire test was repeated twice. […] The compounds to be tested were dissolved in dimethylsulfoxide (DMSO) and the solution brought up to 10^−3M with distilled water. […] The activity obtained for 10^−4 M of BAP was postulated as 100%.

Herpes simplex virus = conditions: Masakatsu et al. 1977; cited from earlier work
Vaccinia virus = conditions: Masakatsu et al. 1977; cited from earlier work
[3] = tested on: Dais cotinifolia shoot-tip explants; assay: Shoot multiplication and shoot-tip necrosis in shoot cultures of Dais cotinifolia; assay type: in vivo; conditions: after 8 weeks of culture
Experimental: Explants were washed thoroughly with 0.1% (v/v) of Tween® 20 for 2 min, and decontaminated with 70% ethanol for 15 sec followed by 0.2% aqueous HgCl2 for 10 min. The explants were rinsed five times with sterile distilled water. […] Each value was presented as the mean±standard error, with three replicates; each replicate consisting of 15 explants per treatment.

[4] = tested on: Gymnosporia buxifolia shoot-tip explants; assay: Shoot-tip necrosis in in vitro cultures of Gymnosporia buxifolia; conditions: after 4 weeks of culture
[5] = tested on: Harpagophytum procumbens nodal explants; assay: Micropropagation growth response with BAP, Harpagophytum procumbens; conditions: after 35 days in vitro, N = 12
[6] = tested on: Amelanchier alnifolia nodal explants; assay: Micropropagation growth response with BAP, Amelanchier alnifolia; conditions: after 35 days in vitro, N = 9

Compound: COc1cccc(CNc2ncnc3c2ncn3[C@@H]2O[C@H](CO)[C@@H](O)[C@@H]2O)c1 [6-(3-methoxybenzylamino)-9-β-D-arabinofuranosylpurine]
- logFC AT1G10585 Basic helix-loop-helix (bHLH) DNA-binding superfamily protein ([1]; 6 h): 0.38
- logFC AT1G15540 2-oxoglutarate and Fe(II)-dependent oxygenase superfamily protein ([1]; 6 h): 0.57
- logFC AT1G19670 Chlorophyllase-1 (CLH1) ([1]; 6 h): 0.63
- logFC AT1G59860 17.6 kDa class I heat shock protein 1 (HSP17.6A) ([1]; 6 h): 0.48
- logFC AT1G76640 Calcium-binding EF-hand family protein (CML39) ([1]; 6 h): 0.78
- logFC AT2G02010 Glutamate decarboxylase 4 (GAD4) ([1]; 6 h): 0.55
- logFC AT2G18150 Peroxidase 15 (PER15) ([1]; 6 h): 0.68
- logFC AT2G21900 WRKY transcription factor 59 (WRKY59) ([1]; 6 h): 0.54
- logFC AT2G26695 Ran BP2/NZF zinc finger-like superfamily protein ([1]; 6 h): 0.50
- logFC AT2G28210 Alpha carbonic anhydrase 2 (ATACA2) ([1]; 6 h): 0.85
- logFC AT2G37430 Zinc finger protein ZAT11 ([1]; 6 h): 0.42
- logFC AT2G39030 L-ornithine N5-acetyltransferase (NATA1) ([1]; 6 h): 0.56
- logFC AT2G47040 Pectin methylesterase Vanguard1 (VGD1) ([1]; 6 h): 2.80
- logFC AT3G05610 Pectinesterase/pectinesterase inhibitor 21 (PME21) ([1]; 6 h): 1.80
- logFC AT3G09340 Transmembrane amino acid transporter family protein ([1]; 6 h): 0.55
- logFC AT3G11340 UDP-Glycosyltransferase superfamily protein ([1]; 6 h): 0.51
- logFC AT3G13400 SKU5 similar 13 (SKS13) ([1]; 6 h): 0.82
- logFC AT3G28153 Transposable element gene ([1]; 6 h): 0.92
- logFC AT3G28155 ARM repeat superfamily protein ([1]; 6 h): 0.59
- logFC AT3G44830 Putative phospholipid:diacylglycerol acyltransferase 2 (PDAT2) ([1]; 6 h): 0.38
- logFC AT4G01390 TRAF-like family protein ([1]; 6 h): 0.79
- logFC AT4G21830 Peptide methionine sulfoxide reductase B7 (MSRB7) ([1]; 6 h): 0.55
- logFC AT4G22030 F-box domain, cyclin-like, F-box domain, Skp2-like protein ([1]; 6 h): 0.41
- logFC AT4G22620 SAUR-like auxin-responsive family protein ([1]; 6 h): 0.46
- logFC AT4G24350 Phosphorylase superfamily protein ([1]; 6 h): 0.64
- logFC AT4G26010 Peroxidase 44 (PER44) ([1]; 6 h): 0.53
- logFC AT4G31950 Cytochrome P450 82C3 (CYP82C3) ([1]; 6 h): 0.37
- logFC AT4G37780 Myb domain protein 87 (MYB87) ([1]; 6 h): 0.41
- logFC AT4G39320 Microtubule-associated protein-related ([1]; 6 h): 0.45
- logFC AT5G03610 GDSL esterase/lipase ([1]; 6 h): 0.42
- logFC AT5G52670 Copper transport family protein ([1]; 6 h): 0.57
- logFC AT5G62720 Integral membrane HPP family protein ([1]; 6 h): 0.44
- logFC AT5G63270 RPM1-interacting protein 4 (RIN4) family protein ([1]; 6 h): 0.56
- logFC AT2G26695 Ran BP2/NZF zinc finger-like superfamily protein ([1]; 48 h): 5.90
- logFC AT3G11340 UDP-Glycosyltransferase superfamily protein ([1]; 48 h): 6.60
- logFC AT3G28153 Transposable element gene ([1]; 48 h): 5.70
- number of downregulated genes (P≤0.05) ([1]; long time treatment (48 h) vs mock (DMSO)): 7 095 genes
- maximum effective concentration [2]: 10^−4 mol · l^−1

Compound: Cc1ccccc1CNc1ncnc2c1ncn2[C@@H]1O[C@H](CO)[C@@H](O)[C@@H]1O [2-methylbenzyl]
- activity in killing Herpes simplex virus (Herpes simplex virus): No effect
- activity in killing Vaccinia virus (Vaccinia virus): No effect

Compound: Cc1cccc(CNc2ncnc3c2ncn3[C@@H]2O[C@H](CO)[C@@H](O)[C@@H]2O)c1 [Example 3CH3BAPA, 6-(3-methylbenzylamino)-9-β-D-arabinofuranosylpurine]
- activity in killing Herpes simplex virus (Herpes simplex virus): No effect
- Morphogenesis in vitro ([3]; 5 μM in MS medium): Green shoots
- STN [%] (shoot-tip necrosis) ([3]; 5 μM in MS medium): 52.2 ± 0.89b %
- Shoot length [cm] ([3]; 5 μM in MS medium): 1.42 ± 0.21bc cm
- Shoots [explant^−1] […] ([3]; 5 μM in MS medium): 1.0 ± 0.00c explant^−1
- Morphogenesis in vitro ([3]; 10 μM in MS medium): Green shoots
- STN [%] (shoot-tip necrosis) ([3]; 10 μM in MS medium): 50.0 ± 0.75bc %
- Shoot length [cm] ([3]; 10 μM in MS medium): 1.86 ± 0.14ab cm
- Shoots [explant^−1] […] ([3]; 10 μM in MS medium): 1.0 ± 0.00c explant^−1
- Morphogenesis in vitro ([3]; 20 μM in MS medium): Pale green shoots
- STN [%] (shoot-tip necrosis) ([3]; 20 μM in MS medium): 45.5 ± 0.95d %
- Shoot length [cm] ([3]; 20 μM in MS medium): 1.94 ± 0.09ab cm
- Shoots [explant^−1] […] ([3]; 20 μM in MS medium): 1.8 ± 0.48bc explant^−1
- Morphogenesis in vitro ([3]; 30 μM in MS medium): Pale green shoots
- STN [%] (shoot-tip necrosis) ([3]; 30 μM in MS medium): 31.3 ± 1.12ef %
- Shoot length [cm] ([3]; 30 μM in MS medium): 2.26 ± 0.22a cm
- Shoots [explant^−1] […] ([3]; 30 μM in MS medium): 2.2 ± 0.32b explant^−1
- STN [%] (shoot-tip necrosis) ([4]; 5 μM in MS medium): 53.3 ± 0.24d %
- Shoot length [cm] ([4]; 5 μM in MS medium): 1.36 ± 0.27bc cm
- Shoots [explant^−1] […] ([4]; 5 μM in MS medium): 1.0 ± 0.0a explant^−1
- STN [%] (shoot-tip necrosis) ([4]; 10 μM in MS medium): 40.0 ± 0.20fg %
- Shoot length [cm] ([4]; 10 μM in MS medium): 1.82 ± 0.17b cm
- Shoots [explant^−1] […] ([4]; 10 μM in MS medium): 1.0 ± 0.0a explant^−1
- STN [%] (shoot-tip necrosis) ([4]; 20 μM in MS medium): 22.6 ± 0.28hi %
- Shoot length [cm] ([4]; 20 μM in MS medium): 3.30 ± 0.14a cm
- Shoots [explant^−1] […] ([4]; 20 μM in MS medium): 1.0 ± 0.0a explant^−1
- STN [%] (shoot-tip necrosis) ([4]; 30 μM in MS medium): 13.3 ± 0.24j %
- Shoot length [cm] ([4]; 30 μM in MS medium): 3.00 ± 0.11a cm
- Shoots [explant^−1] […] ([4]; 30 μM in MS medium): 1.0 ± 0.0a explant^−1
- Fresh weight (g) mean SE ([5]; 5 μM compound with 10 μM BAP): 0.8607 ± 0.1884 g
- Shoot length (mm) mean SE ([5]; 5 μM compound with 10 μM BAP): 28.6 ± 4.397 mm
- Shoot no. mean SE ([5]; 5 μM compound with 10 μM BAP): 2.8 ± 0.573
- Fresh weight (g) mean SE ([5]; 10 μM compound with 10 μM BAP): 1.0523 ± 0.2439 g
- Shoot length (mm) mean SE ([5]; 10 μM compound with 10 μM BAP): 45.8 ± 7.094 mm
- Shoot no. mean SE ([5]; 10 μM compound with 10 μM BAP): 2.6 ± 0.340
- Fresh weight (g) mean SE ([5]; 20 μM compound with 10 μM BAP): 0.8456 ± 0.1339 g
- Shoot length (mm) mean SE ([5]; 20 μM compound with 10 μM BAP): 27 ± 3.531 mm
- Shoot no. mean SE ([5]; 20 μM compound with 10 μM BAP): 2.3 ± 0.423
- Fresh weight (g) mean SE ([5]; 30 μM compound with 10 μM BAP): 1.1419 ± 0.213 g
- Shoot length (mm) mean SE ([5]; 30 μM compound with 10 μM BAP): 40.6 ± 4.831 mm
- Shoot no. mean SE ([5]; 30 μM compound with 10 μM BAP): 3.8 ± 0.593
- activity in killing Vaccinia virus (Vaccinia virus): No effect
- Fresh weight (g) mean SE ([6]; 5 μM compound with 10 μM BAP): 0.249 ± 0.0594 g
- Shoot length (mm) mean SE ([6]; 5 μM compound with 10 μM BAP): 14.11 ± 1.670 mm
- Shoot no. mean SE ([6]; 5 μM compound with 10 μM BAP): 7.6 ± 2.10
- Fresh weight (g) mean SE ([6]; 10 μM compound with 10 μM BAP): 0.349 ± 0.1025 g
- Shoot length (mm) mean SE ([6]; 10 μM compound with 10 μM BAP): 18.89 ± 2.288 mm
- Shoot no. mean SE ([6]; 10 μM compound with 10 μM BAP): 10.6 ± 2.75
- Fresh weight (g) mean SE ([6]; 20 μM compound with 10 μM BAP): 0.563 ± 0.0729 g
- Shoot length (mm) mean SE ([6]; 20 μM compound with 10 μM BAP): 16.22 ± 1.730 mm
- Shoot no. mean SE ([6]; 20 μM compound with 10 μM BAP): 13.7 ± 2.06
- Fresh weight (g) mean SE ([6]; 30 μM compound with 10 μM BAP): 0.335 ± 0.0877 g
- Shoot length (mm) mean SE ([6]; 30 μM compound with 10 μM BAP): 18.33 ± 3.122 mm
- Shoot no. mean SE ([6]; 30 μM compound with 10 μM BAP): 11.6 ± 2.99

Compound: Cc1cccc(CNc2ncnc3c2ncn3C2OC(CO)C(O)C2O)c1C (stereo not drawn) [2,3-dimethylbenzyl]
- activity in killing Herpes simplex virus (Herpes simplex virus): No effect
- activity in killing Vaccinia virus (Vaccinia virus): No effect
